These results are taken from patent US9125904B1, “Biphenyl imidazoles and related compounds useful for treating HCV infections” (ACHILLION PHARMACEUTICALS, INC., priority 2010, dated 2015).

In the assay the test system is HCV replicon. The assay is described as follows: HCV replicon replication assay (NPT ELISA). The format is cell-based. The following applies: Hepatitis C virus. The protocol:
Compounds claimed herein are tested for the ability to inhibit viral replication of the Hepatitis C replicon in cultured cells in which the HCV replicon construct has been incorporated. The HCV replicon system was described by Bartenschlager, et. al (Science, 285, pp. 110-113 (1999)). The replicon system is predictive of in vivo anti-HCV activity; compounds that are active in humans uniformly evidence activity in the replicon assay.
In this assay HCV replicon containing cells are treated with different concentrations of the test compound to ascertain the ability of the test compound to suppress replication of the HCV replicon. As a positive control, HCV replicon-containing cells are treated with different concentrations of interferon alpha, a known inhibitor of HCV replication. The replicon assay system includes Neomycin Phosphotransferase (NPT) as a component of the replicon itself in order to detect the transcription of replicon gene products in the host cell. Cells in which the HCV replicon is actively replicating have high levels of NPT; the level of NPT is proportional to HCV replication. […] The NPT level of each sample is measured using a captured ELISA.
A protocol for testing compounds for the ability to inhibit viral replication of the Hepatitis C replicon cultured cells in which the replicon construct has been incorporated, follows.
The HCV replicon contains, 5′-3′, the HCV-IRES, the neomycin phosphotransferase (neo) gene, the IRES of encephalomyocarditis virus, which directs translation of HCV sequences NS3 to NS5B, and the 3′-NTR. The sequence of the HCV replicon has been deposited in GenBank (Accession no. AJ242652).
The replicon is transfected into Huh-7 cells using standard methods such as electroporation.
The equipment and materials include, but are not limited to, Huh-7 HCV replicon-containing cells, maintenance media (DMEM (Dulbecco's modified Eagle media) supplemented with 10% FBS, L-glutamine, non-essential amino acids, penicillin (100 units/ml), streptomycin (100 micrograms/ml), and 500 micrograms/ml of Geneticin (G418), screening media (DMEM supplemented with 10% FBS, L-glutamine, non-essential amino acids, penicillin (100 units/ml) and streptomycin (100 micrograms/ml)), 96 well tissue culture plates (flat bottom), 96 well plates (U bottom for drug dilution), Interferon alpha for positive control, fixation reagent (such as methanol: acetone), primary antibody (rabbit anti-NPTII), secondary antibody: Eu-N1 1, and enhancement solution.
HCV replicon-containing cells support high levels of viral RNA replicon replication when their density is suitable. Over-confluency causes decreased viral RNA replication. Therefore, cells must be kept growing in log phase in the presence of 500 micrograms/ml of G418. Generally, cells should be passed twice a week at 1: 4-6 dilution. Cell maintenance is conducted as follows:
HCV replicon-containing cells are examined under a microscope to ensure that cells growing well. Cells are rinsed once with PBS and 2 ml trypsin is added. The cell/trypsin mixture is incubated at 37° C. in a CO2 incubator for 3-5 minutes. After incubation 10 ml of complete media is added to stop the trypsinization reaction. Cells are blown gently, put into a 15 ml tube, and spun at 1200 rpm for 4 minutes. The trypsin/medium solution is removed. Medium (5 ml) is added and the cells are mixed carefully. The cells are counted.
The cells are then seeded onto 96-well plates at a density of 6000-7500 cells/100 microliters/well (6−7.5×10^5 cells/10 ml/plate). The plates are then incubated at 37° C. in a 5% CO2 incubator.
Cells are examined under a microscope approximated 24 hours after seeding and prior to adding drugs. If counting and dilution were performed correctly, cells are 60-70% confluent and nearly all cells should attach and spread evenly in the well.
HCV replicon-containing cells are rinsed with once PBS once; 2 mls of trypsin are then added. Cells are incubated at 37° C. in a 5% CO2 incubator for 3-5 minutes. […]
In general terms: In antiviral work, replicon cells carry a viral genome segment that copies itself.

The mark [1] stands for this setting: 72 h, Huh-7 HCV replicon-containing cells, three days, class symbols, read-out: EC50.

Read-outs that look alike come from different tables or passages of the source. Where only a bound is given, the exact number is not on record here.

For `CCCS(=O)(=O)N1CCN(Cc2ccc(NC(=O)c3ccc(-c4ccc(C(=O)Nc5ccc(CN6CCN(S(=O)(=O)CCC)CC6)cc5)cc4)cc3)cc2)CC1` [Compound 17, N4,N4′-bis(4-((4-(propylsulfonyl)piperazin-1-yl)methyl)phenyl)biphenyl-4,4′-dicarboxamide], under setting [1], the EC50 is less than 50 nM.

On to `CCCS(=O)(=O)N1CCN(Cc2ccc(NC(=O)c3ccc(-c4ccc(-c5c[nH]c([C@@H]6CCCN6C(=O)OC(C)(C)C)n5)cc4)cc3)cc2)CC1` [Compound 18, (S)-tert-butyl 2-(4-(4′-(4-((4-(propylsulfonyl)piperazin-1-yl)methyl)phenylcarbamoyl)biphenyl-4-yl)-1H-imidazol-2-yl)pyrrolidine-1-carboxylate], for which, under setting [1], the EC50 was less than 50 nM.

Take `CCCS(=O)(=O)N1CCN(Cc2ccc(NC(=O)c3ccc(-c4ccc(-c5c[nH]c([C@@H]6CCCN6C(=O)[C@@H](NC(=O)OC)C(C)C)n5)cc4)cc3)cc2)CC1` [Compound 19, methyl (S)-3-methyl-1-oxo-1-((S)-2-(4-(4′-(4-((4-(propylsulfonyl)piperazin-1-yl)methyl)phenylcarbamoyl)biphenyl-4-yl)-1H-imidazol-2-yl)pyrrolidin-1-yl)butan-2-ylcarbamate]: the EC50 under setting [1] was less than 50 nM.

Turning to `CC(C)(C)OC(=O)N1CC=CC1c1nc(-c2ccc(-c3ccc(-c4c[nH]c([C@@H]5C=CCN5C(=O)OC(C)(C)C)n4)cc3)cc2)c[nH]1` (stereo partly drawn) [Compound 20, (2R,2′R)-tert-butyl 2,2′-(4,4′-(biphenyl-4,4′-diyl)bis(1H-imidazole-4,2-diyl))bis(2,5-dihydro-1H-pyrrole-1-carboxylate)], the concentration giving a half-maximal response (EC50) under setting [1] is less than 100 nM.

Take `COC(=O)N[C@H](C(=O)N1CC=CC1c1nc(-c2ccc(-c3ccc(-c4c[nH]c([C@@H]5C=CCN5C(=O)[C@@H](NC(=O)OC)C(C)C)n4)cc3)cc2)c[nH]1)C(C)C` (stereo partly drawn) [Compound 21, dimethyl (2S,2′S)-1,1′-((2R,2′R)-2,2′-(4,4′-(biphenyl-4,4′-diyl)bis(1H-imidazole-4,2-diyl))bis(1H-pyrrole-2,1(2H,5H)-diyl))bis(3-methyl-1-oxobutane-2,1-diyl)dicarbamate]: under setting [1], the EC50 was less than 5 nM.

As to `CCCS(=O)(=O)N1CCN(Cc2ccc(C(=O)Nc3ccc(-c4ccc(-c5c[nH]c([C@@H]6CCCN6C(=O)[C@@H](NC(=O)OC)C(C)C)n5)cc4)cc3)cc2)CC1` [Compound 22, methyl (S)-3-methyl-1-oxo-1-((S)-2-(4-(4′-(4-((4-(propylsulfonyl)piperazin-1-yl)methyl)benzamido)biphenyl-4-yl)-1H-imidazol-2-yl)pyrrolidin-1-yl)butan-2-ylcarbamate], the concentration giving a half-maximal response (EC50) under setting [1] was less than 5 nM.

Turning to `CNC(=O)C[C@H](C(=O)N1CCC[C@H]1c1ncc(-c2ccc(-c3cnc([C@@H]4CCCN4C(=O)[C@@H](CC(=O)NC)C(C)(C)C)[nH]3)cc2)[nH]1)C(C)(C)C` [Compound 23, (3S,3′S)-3,3′-(2S,2′S)-2,2′-(5,5′-(1,4-phenylene)bis(1H-imidazole-5,2-diyl))bis(pyrrolidine-2,1-diyl)bis(oxomethylene)bis(N,4,4-trimethylpentanamide)], the 50% effective concentration (EC50) under setting [1] was less than 50 nM.

For the compound `COC(=O)N[C@H](C(=O)N1C2CCC(C2)[C@H]1c1nc(-c2ccc(-c3ccc(-c4c[nH]c([C@@H]5C6CCC(C6)N5C(=O)[C@@H](NC(=O)OC)C(C)C)n4)cc3)cc2)c[nH]1)C(C)C` [Compound 24, dimethyl (2S,2′S)-1,1′-((3S,3′S)-3,3′-(4,4′-(biphenyl-4,4'-diyl)bis(1H-imidazole-4,2-diyl))bis(2-azabicyclo[2.2.1]heptane-3,2-diyl))bis(3-methyl-1-oxobutane-2,1-diyl)dicarbamate], under setting [1], the EC50 was less than 5 nM.

For `COC(=O)NC(C(=O)N1c2ccccc2C[C@H]1c1nc(-c2ccc(-c3ccc(-c4cnc([C@@H]5Cc6ccccc6N5C(=O)C(NC(=O)OC)C(C)C)[nH]4)cc3)cc2)c[nH]1)C(C)C` (stereo partly drawn) [Compound 25, dimethyl (2R,2′R)-1,1′-((2S,2′S)-2,2′-(5,5′-(biphenyl-4,4′-diyl)bis(1H-imidazole-5,2-diyl))bis(indoline-2,1-diyl))bis(3-methyl-1-oxobutane-2,1-diyl)dicarbamate], the concentration giving a half-maximal response (EC50) was less than 5 nM under setting [1] and not above 10000 nM (Huh-7).

`COC(=O)N[C@@H](C(=O)N1c2ccccc2C[C@H]1c1nc(-c2ccc(-c3ccc(-c4cnc([C@@H]5Cc6ccccc6N5)[nH]4)cc3)cc2)c[nH]1)C(C)C` [Compound 26, methyl (R)-1-((S)-2-(4-(4′-(2-((S)-indolin-2-yl)-1H-imidazol-5-yl)biphenyl-4-yl)-1H-imidazol-2-yl)indolin-1-yl)-3-methyl-1-oxobutan-2-ylcarbamate]: the 50% effective concentration (EC50) under setting [1] was less than 5 nM.

In the case of `CC(C)(C)OC(=O)N1c2ccccc2C[C@H]1c1nc(-c2ccc(-c3ccc(-c4cnc([C@@H]5Cc6ccccc6N5C(=O)OC(C)(C)C)[nH]4)cc3)cc2)c[nH]1` [Compound 27, (2S,2′S)-tert-butyl 2,2′-(5,5′-(biphenyl-4,4′-diyl)bis(1H-imidazole-5,2-diyl))diindoline-1-carboxylate], the half-maximal effective concentration (EC50) under setting [1] is less than 50 nM.

On to `CC(=O)N[C@H](C(=O)N1CC=CC1c1nc(-c2ccc(-c3ccc(-c4c[nH]c(C5C=CCN5C(=O)[C@@H](NC(C)=O)C(C)C)n4)cc3)cc2)c[nH]1)C(C)C` (stereo partly drawn) [Compound 28, N,N′-(2S,2′S)-1,1′-((2R,2′R)-2,2′-(4,4′-(biphenyl-4,4′-diyl)bis(1H-imidazole-4,2-diyl))bis(1H-pyrrole-2,1(2H,5H)-diyl))bis(3-methyl-1-oxobutane-2,1-diyl)diacetamide], for which the EC50 under setting [1] is less than 50 nM.

`CCS(=O)(=O)N[C@H](C(=O)N1C2CCC(C2)[C@H]1c1nc(-c2ccc(-c3ccc(-c4c[nH]c([C@@H]5C6CCC(C6)N5C(=O)[C@@H](NS(=O)(=O)CC)C(C)C)n4)cc3)cc2)c[nH]1)C(C)C` [Compound 33, N,N′-(2S,2′S)-1,1′-((3S,3′S)-3,3′-(4,4′-(biphenyl-4,4′-diyl)bis(1H-imidazole-4,2-diyl))bis(2-azabicyclo[2.2.1]heptane-3,2-diyl))bis(3-methyl-1-oxobutane-2,1-diyl)diethanesulfonamide]: the concentration giving a half-maximal response (EC50) is, setting by setting: under setting [1], less than 5 nM; (Huh-7) not above 10000 nM.

Regarding `COC(=O)NC(C(=O)N1CCC[C@H]1c1ncc(-c2ccc(-c3ccc(-c4c[nH]c([C@@H]5Cc6ccccc6N5C(=O)C(NC(=O)OC)C(C)C)n4)cc3)cc2)[nH]1)C(C)C` (some centres unmarked) [Compound 35], under setting [1], the EC50 is less than 5 nM.

Take `COC(=O)N[C@H](C(=O)N1CCC[C@H]1c1ncc(-c2ccc(-c3ccc(-c4c[nH]c([C@@H]5C6CCC(C6)N5C(=O)[C@@H](NC(=O)OC)C(C)C)n4)cc3)cc2)[nH]1)C(C)C` (some centres unmarked) [Compound 36]: the concentration giving a half-maximal response (EC50) under setting [1] was less than 50 nM.

`CNC(=O)C[C@H](C(=O)N1CCC[C@H]1c1ncc(-c2ccc3c(c2)Cc2cc(-c4cnc([C@@H]5CCCN5C(=O)[C@@H](CC(=O)NC)C(C)(C)C)[nH]4)ccc2-3)[nH]1)C(C)(C)C` [Compound 37, (3S,3′S)-3,3′-(2S,2′S)-2,2′-(5,5′-(9H-fluorene-2,7-diyl)bis(1H-imidazole-5,2-diyl))bis(pyrrolidine-2,1-diyl)bis(oxomethylene)bis(N,4,4-trimethylpentanamide)] showed a half-maximal effective concentration (EC50) (Huh-7, 72 h) of more than 1 nM.

Regarding `CNC(=O)C[C@H](C(=O)N1C2CCC(C2)[C@H]1c1nc(-c2ccc(-c3ccc(-c4cnc([C@@H]5C6CCC(C6)N5C(=O)[C@@H](CC(=O)NC)C(C)C)[nH]4)cc3)cc2)c[nH]1)C(C)C` (stereo partly drawn) [Compound 38, (3S,3′S)-3,3′-(3S,3′S)-3,3′-(4,4′-(biphenyl-4,4′-diyl)bis(1H-imidazole-4,2-diyl))bis(2-azabicyclo[2.2.1]heptane-3,2-diyl)bis(oxomethylene)bis(N,4-dimethylpentanamide)], the 50% effective concentration (EC50) is more than 1 nM (72 h, Huh-7 HCV replicon-containing cells, three days, numeric cells, read-out: EC50) and not above 10000 nM (Huh-7).

The EC50 is the concentration that produces a half-maximal response.
